Laboratory results from patent publication US11542261B2, “Substituted Imidazo[1,2-a]-pyridines as IRAK 1/4 and FLT3 inhibitors” (CHILDREN'S HOSPITAL MEDICAL CENTER, priority 2016, dated 2023).

Columns and labels:
THP-1 cells [1] = assay: Inhibitory activity against THP-1 cells; assay type: cell-based; conditions: THP-1 cells (FLT3 wild type AML); data not shown
ABL = ABL (Homo sapiens (Human), UniProt P00519); assay: KiNativ in situ kinase profiling in MV4:11 cell lysates; assay type: biochemical
Procedure: (§1) FIG. 18A depicts the labeling site key. FIG. 18B depicts estimated IC50 values. FIG. 18C depicts the full IC50 list for the various kinases. This is an in situ kinase profiling assay; details and methodology are available at www kinativ com. The assay was performed in lysates of MV-4-11 cells which were pretreated for 15 minutes with the inhibitor before the ATP probe was added.
(§2) The KiNativ® assay is an in situ kinase profiling assay; details and methodology are available at www kinativ com. This assay uses the form of the enzyme that is found in actual cells. The assay is run either in cell lysates or in whole cells, with the drug of interest added either to the cell lysates (i.e. cells that have been popped open) or to the outside of the cell in a whole cell assay prior to making the cell lysates. The whole cell assay is optimal because the drug must pass through the cell membrane to get to the cytoplasm where the kinase resides if the kinase is a cytosolic kinase, as is the case for IRAK, or the location of the kinase domain for the FLT3 receptor kinase domain. In the case of FIG. 18, the KiNativ assay was run on cell lysates from the MV4:11 cells. The MV4:11 cells are a FLT3-ITD positive cell line.
(§3) FLT3 is not captured by the KiNativ technology. The KiNativ assay is done in the actual cellular milieu, where the kinase domains are in their more natural states and subject to more native regulatory elements (e.g. other protein domains within the kinase itself that might not be present in the Reaction Biology assay, and which might otherwise obscure access to the active site by our ligand).

CDK7 = CDK7 (Homo sapiens (Human), UniProt P50613); assay: as above; assay type: biochemical
Procedure: as §1, §2, §3

GAK = GAK (Homo sapiens (Human), UniProt O14976); assay: as above; assay type: biochemical
Procedure: as §1, §2, §3

HGK = HGK (Homo sapiens (Human), UniProt O95819); assay: as above; assay type: biochemical
Procedure: as §1, §2, §3

IRAK1 = IRAK1 (Homo sapiens (Human), UniProt P51617); assay: as above; assay type: biochemical
Procedure: as §1, §2, §3

LYN = LYN (Homo sapiens (Human), UniProt P07948); assay: as above; assay type: biochemical
Procedure: as §1, §2, §3

MINK = MINK (Homo sapiens (Human), UniProt Q8N4C8); assay: as above; assay type: biochemical
Procedure: as §1, §2, §3

PCTAIRE1 = PCTAIRE1 (Homo sapiens (Human), UniProt Q00536); assay: as above; assay type: biochemical
Procedure: as §1, §2, §3

PCTAIRE2 = PCTAIRE2 (Homo sapiens (Human), UniProt Q00537); assay: as above; assay type: biochemical
Procedure: as §1, §2, §3

PCTAIRE3 = PCTAIRE3 (Homo sapiens (Human), UniProt Q07002); assay: as above; assay type: biochemical
Procedure: as §1, §2, §3

TNIK = TNIK (Homo sapiens (Human), UniProt Q9UKE5); assay: as above; assay type: biochemical
Procedure: as §1, §2, §3

FLT3 phosphorylation = assay: Immunoblot of phosphorylated FLT3 in MV4;11 cells; assay type: cell-based, human; conditions: 50 nM, 24 hours
IRAK4 phosphorylation = assay: Immunoblot of phosphorylated IRAK4 in MDSL cells; assay type: cell-based, human; conditions: 24 hours
MDSL cells = assay: MDSL cell growth, Cell-titer glow, 72 hours; assay type: cell-based, human
Procedure: In a 96-well culture plate (Corning Inc. Costar), 25000 cells were plated in 200 μL media per well. In triplicate, 2 μL of the indicated inhibitor (100× in DMSO) was added to each well and cells treated with 2 μL DMSO alone was used as the control. Treated cells were incubated at 37° C. for 72 hours. In a white 96-well assay plate (Corning Inc. Costar), 100 μL of the treated cells were transferred and brought to room temperature. An equal volume of CellTiter-Glo Reagent at room temperature was added to the cells and the plate was rocked for 2 minutes, followed by 10 minutes of rest. Analysis was performed using GloMax 96 microplate Luminometer (Promega) with GloMax Software.
FIG. 10—Methods: (FIG. 10A) Colony formation of MDSL cells was determined in methylcellulose supplemented with 1 μM or 10 μM of the indicated compounds. Colony formation was determined after 10 days.

THP-1 cells [2] = assay: Synergy of I-24/1481 with venetoclax in THP-1 cells (MTS); assay type: cell-based; conditions: combined with an IC50 concentration of I-24/1481
Procedure: Data were analyzed by Prism v 8. […] FIG. 14C depicts the relevant heat maps; data in the upper heat map indicates the Bliss Scores, and the lower heat map indicates the individual data points for the various dose response curves. Methods: Day 0: Cell Line Plating in growth media recommended by ATCC using Tecan Fluent in 96 well plate (Eppendorf 0030730011); Day 1: Drug Addition. Venetoclax obtained from Selleckchem (S8048); Day 1→4: Incubate with Drug for 72 Hrs at 37 C, 5% CO2; Day 5: Add 20% original volume MTS (Promega G5440) and incubate for 4 Hrs; Add 25% original volume 10% SDS (Invitrogen 24730-020) to lyse cells and stop conversion of MTS to formazan. Read out is colorimetric at 490 nm using a BioTek Synergy Neo Plate Reader.

Kasumi-1 cells = assay: Synergy of I-24/1481 with venetoclax in Kasumi-1 cells (MTS); assay type: cell-based

Row | Structure (SMILES) | concentration without any inhibitory activity (THP-1 cells [1]) [µM] | IC50 (ABL) [µM] | IC50 (CDK7) [µM] | IC50 (GAK) [µM] | IC50 (HGK) [µM] | IC50 (IRAK1) [µM] | IC50 (LYN) [µM] | IC50 (MINK) [µM] | IC50 (PCTAIRE1) [µM] | IC50 (PCTAIRE2) [µM] | IC50 (PCTAIRE3) [µM] | IC50 (TNIK) [µM] | FLT3 phosphorylation (FLT3 phosphorylation) | IRAK4 phosphorylation (IRAK4 phosphorylation) | MDSL growth (MDSL cells) | shift of venetoclax IC50 (THP-1 cells [2]) | IC50 (Kasumi-1 cells; Homo sapiens, denominator of the dose ratio, read-out: concentration giving the IC50 response when administered alone) [µM] | fold shift of Venetoclax IC50 (Kasumi-1 cells; combined with a minimally active concentration of I-24/1481) [fold] | fold shift of Venetoclax IC50 (MLL-AF9 FLT3-ITD cells; combined with 0.2 nM 1481) [fold] | IC50 (MLL-AF9 FLT3-ITD cells; read-out: IC50 alone, single agent) [µM]
1 | COc1cc2ncc(-c3cccc(NC4CCNC4)n3)n2cc1-c1cnn(C)c1 (centres unmarked) [Compound I-24, 6-(7-methoxy-6-(1-methyl-1H-pyrazol-4-yl)imidazo[1,2-a]pyridin-3-yl)-N-(pyrrolidin-3-yl)pyridin-2-amine] | > 10 | < 0.25 | < 0.25 | < 0.25 | < 0.25 | < 0.25 | < 0.25 | < 0.25 | < 0.25 | < 0.25 | < 0.25 | < 0.25 | inhibited FLT3 phosphorylation comparably to AC220 | effectively inhibited pIRAK4 | increased ability to inhibit MDSL growth compared to IRAK-Inh |  |  |  |  | 
2 | CC1(C)CCC(CN2CCN(c3ccc(C(=O)NS(=O)(=O)c4ccc(NCC5CCOCC5)c([N+](=O)[O-])c4)c(Oc4cnc5[nH]ccc5c4)c3)CC2)=C(c2ccc(Cl)cc2)C1 [Venetoclax, venetoclax] |  |  |  |  |  |  |  |  |  |  |  |  |  |  |  | 15,000 times | 3.6 | ~15 | 50 | 3.16
